Assay results: patent publication EP0942911B1, “BENZOPYRANOPYRROLE AND BENZOPYRANOPYRIDINE ALPHA-1 ADRENERGIC COMPOUNDS” (Abbott Laboratories, priority 1996, dated 1998)
Structures can show the parent of a compound that is named as a salt. Where two headings read alike, the source gives them in different places.

Columns and labels:
Assay in all cases: biochemical
[1] = target: T1, α-1A adrenoreceptor (rat submaxillary gland) (Rattus norvegicus, UniProt P43140); format: binding; settings: read-out: Radioligand Binding (Ki, nM) 1A (Rat)
T1 sequence (P43140 1-466): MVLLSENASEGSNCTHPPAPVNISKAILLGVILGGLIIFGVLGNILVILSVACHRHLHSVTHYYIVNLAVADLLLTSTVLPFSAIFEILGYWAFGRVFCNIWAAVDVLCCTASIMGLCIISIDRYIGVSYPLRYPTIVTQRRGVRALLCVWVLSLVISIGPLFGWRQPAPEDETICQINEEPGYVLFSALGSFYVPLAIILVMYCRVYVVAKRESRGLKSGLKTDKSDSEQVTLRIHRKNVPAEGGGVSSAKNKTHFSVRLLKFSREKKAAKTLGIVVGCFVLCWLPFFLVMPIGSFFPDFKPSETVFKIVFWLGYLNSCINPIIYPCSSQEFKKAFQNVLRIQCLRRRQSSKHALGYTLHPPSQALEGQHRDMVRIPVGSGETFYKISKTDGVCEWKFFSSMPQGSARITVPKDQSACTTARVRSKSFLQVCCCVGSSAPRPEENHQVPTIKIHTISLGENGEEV
Method: Additionally, binding affinity against the pharrnacologically defined α-1A adrenoreceptor (rat submaxillary gland) was measured.
(§1) On the fifth day of culture, growth medium was removed from cells grown in roller bottles, and the cells were washed twice with PBS (Sigma, 120 mM NaCl, 2.7 mM KCl, 10 mM Na2HPO4-NaH2PO4, pH = 7.4). Cells were detached from the roller bottles by incubating for 15 minutes at 37 °C in a Tris-EDTA solution (10 mM Tris, 100 mM NaCl, 1 mM EDTA, pH = 7.4). The cell suspension from each roller bottle was decanted into tared centrifuge tubes and kept on ice. An aliquot of each cell suspension was generally taken for cell counting. Cells were centrifuged at 3000 X G for 5 min at 2-4 °C, washed with PBS and recentrifuged. The supernatant was decanted and the pellet weighed to determine the wet weight of cells. Cells were washed a final time in 40 vol 5 mM Tris-HCl, 5 mM EDTA, pH = 7.7, and centrifuged at 40,000 X G for 10 minutes. Cells were homogenized in 10 mL of 50 mM Tris-HCl, 5 mM EDTA (pH = 7.4) and diluted to 40 mL/tube. Homogenates were centrifuged at 40,000 X G for 10 minutes. The supernatant was decanted and the pellets rehomogenized in 50 mM Tris-HCl (pH = 7.4) and centrifuged as before. The supernatant was decanted and the homogenate resuspended in 6.25 volumes (per gram wet weight) of 50 mM Tris-HCl and aliquots of the pooled homogenates frozen in liquid N2 and stored at -70 °C until the time of assay. Rat submaxillary glands were used for α-1A adrenoreceptors and were prepared essentially as described (Michel, A. D., Loury, D. N. and Whiting, R. L., Brit. J. Pharmacol. 98: 83-889 (1989)).
(§2) Receptor binding assays for α-1 adrenoreceptors were performed essentially as described by Greengrass and Bremner (Eur. J. Pharmacol. 55: 323-326 (1979)). […] Radioactivity was determined by standard liquid scintillation techniques. Data were analyzed as previously described (Hancock, A. A., Kyncl, J. J., Martin, Y. C. and DeBernardis, J. F., J. Receptor Res. 8: 23-46 (1988)).

α-1a adrenoreceptor = target: T2, α-1a adrenoreceptor (Bos taurus, UniProt P18130); format: binding, bovine; settings: read-out: Radioligand Binding (Ki, nM) 1a (Bovine)
T2 sequence (P18130 1-466): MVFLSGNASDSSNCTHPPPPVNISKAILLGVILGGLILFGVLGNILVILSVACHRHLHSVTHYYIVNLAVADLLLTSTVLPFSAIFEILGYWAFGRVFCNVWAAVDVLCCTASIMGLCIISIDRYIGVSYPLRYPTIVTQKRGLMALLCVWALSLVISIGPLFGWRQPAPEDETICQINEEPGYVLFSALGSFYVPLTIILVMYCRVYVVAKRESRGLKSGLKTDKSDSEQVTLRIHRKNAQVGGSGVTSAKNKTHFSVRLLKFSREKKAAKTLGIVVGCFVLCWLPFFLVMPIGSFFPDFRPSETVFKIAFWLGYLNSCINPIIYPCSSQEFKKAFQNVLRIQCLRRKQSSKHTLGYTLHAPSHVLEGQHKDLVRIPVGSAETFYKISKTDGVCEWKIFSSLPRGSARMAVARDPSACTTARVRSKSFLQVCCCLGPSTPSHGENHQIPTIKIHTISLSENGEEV
Source text: (§3) The cDNA clones encoding the α-1 adrenoreceptors (α-1a, α-1b, and α-1d) were obtained from TULCO (Triangle Universities Licensing Consortium, Research Triangle Park, NC) and inserted into the eukaryotic expression vector SnaB30. In this vector, expression of the adrenoreceptor gene is under the transcriptional control of an SV40 early promoter. Positive drug selection is provided by a neomycin-resistance gene. Mouse fibroblast cells (LTK) were transfected with the α1 expression plasmids and grown in Dulbecco's modified Eagle's medium (DMEM) containing 10% fetal calf serum and 30 µM G418. Stable G418-resistant parental lines were generated, with successful expression of adrenoreceptor protein monitored using radioligand binding techniques. Stable single cell clones derived from the parental lines were screened in adrenoreceptor binding assays to identify clones having high adrenoreceptor density. Roller bottle cultures of the cloned lines were used to provide cell membranes for subsequent adrenoreceptor binding characterization studies. A cell line containing the SnaB30 vector expressing the human erythropoietin gene served as a negative control.
(§4) For adrenoreceptor binding assays, large scale membrane preparations were utilized in which 6 million cells were seeded into small (450 cm^2) Corning tissue culture roller bottles. 200 mL of DMEM containing 10% fetal calf serum and 300 µM G418 were added to each roller bottle. A 95% air / 5% CO2 gas mixture (sterile) was injected into each roller bottle prior to sealing. The bottles were then incubated at 37 °C on a roller rack for 5 days. Cells were re-fed with fresh medium after 3 days in culture.
as §1, §2

α-1b adrenoreceptor = target: T3, α-1b adrenoreceptor (Mesocricetus auratus, UniProt P18841); format: binding, hamster; settings: read-out: Radioligand Binding (Ki, nM) 1b (Hamster)
T3 sequence (P18841 1-515): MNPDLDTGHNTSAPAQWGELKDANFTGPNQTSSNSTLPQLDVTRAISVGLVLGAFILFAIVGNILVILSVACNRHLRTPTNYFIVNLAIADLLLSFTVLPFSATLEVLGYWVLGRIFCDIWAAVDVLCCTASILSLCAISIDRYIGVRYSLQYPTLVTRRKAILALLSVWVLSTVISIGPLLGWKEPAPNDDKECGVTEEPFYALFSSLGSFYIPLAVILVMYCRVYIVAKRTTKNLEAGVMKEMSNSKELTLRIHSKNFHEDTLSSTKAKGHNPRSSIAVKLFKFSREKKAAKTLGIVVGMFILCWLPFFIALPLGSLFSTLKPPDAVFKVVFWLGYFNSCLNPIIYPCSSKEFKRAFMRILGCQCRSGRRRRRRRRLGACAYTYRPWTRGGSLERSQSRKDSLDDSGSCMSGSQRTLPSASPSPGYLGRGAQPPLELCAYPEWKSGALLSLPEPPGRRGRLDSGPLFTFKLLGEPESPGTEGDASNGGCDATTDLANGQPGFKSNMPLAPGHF
Source text: as §3, §4, §1, §2

α-1d adrenoreceptor = target: T4, α-1d adrenoreceptor (Rattus norvegicus, UniProt P23944); format: binding; settings: read-out: Radioligand Binding (Ki, nM) 1d (Rat)
T4 sequence (P23944 1-561): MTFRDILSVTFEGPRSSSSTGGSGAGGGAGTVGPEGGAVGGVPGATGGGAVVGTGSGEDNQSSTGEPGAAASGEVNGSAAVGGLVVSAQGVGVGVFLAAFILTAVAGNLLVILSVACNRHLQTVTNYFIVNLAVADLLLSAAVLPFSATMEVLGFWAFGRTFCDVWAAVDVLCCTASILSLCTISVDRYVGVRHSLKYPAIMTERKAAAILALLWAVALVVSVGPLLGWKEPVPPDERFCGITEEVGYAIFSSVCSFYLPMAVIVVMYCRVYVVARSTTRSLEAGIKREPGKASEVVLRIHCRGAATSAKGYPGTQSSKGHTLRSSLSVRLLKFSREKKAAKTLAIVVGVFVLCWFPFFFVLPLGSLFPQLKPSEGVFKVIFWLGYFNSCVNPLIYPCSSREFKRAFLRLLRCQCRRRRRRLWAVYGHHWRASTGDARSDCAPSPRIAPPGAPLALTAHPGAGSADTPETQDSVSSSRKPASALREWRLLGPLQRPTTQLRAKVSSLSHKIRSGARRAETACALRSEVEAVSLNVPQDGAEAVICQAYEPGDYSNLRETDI
Source text: as §3, §4, §1, §2

[2] = [3H]-prazosin radioligand, rat submaxillary gland membranes
[3] = [3H]-prazosin radioligand, cloned receptor in LTK cell membranes

Row | Structure (SMILES) | Ki [1] | Ki (α-1a adrenoreceptor) | Ki (α-1b adrenoreceptor) | Ki (α-1d adrenoreceptor) | Ki [1, 2] | Ki (α-1a adrenoreceptor; [3]) | Ki (α-1b adrenoreceptor; [3]) | Ki (α-1d adrenoreceptor; [3])
1 | COc1cccc2c1[C@H]1CN(CCCCn3c(=O)[nH]c4c(sc5cccnc54)c3=O)C[C@@H]1CO2 (racemic) [Example 72, 3-[4-((±)-trans-9-Methoxy-1,2,3,3a,4,9b-hexahydro-[1]-benzopyrano[3,4-c]pyrrol-2-yl)butyl]-pyrido[2',3':4,5]thieno[3,2-d]pyrimidine-2,4(1H,3H)-dione dihydrochloride] | 0.107 nM | 0.133 nM | 3.54 nM | 0.804 nM |  |  |  | 
2 | COc1ccc2c(c1)[C@@H]1CN(CCCCn3c(=O)[nH]c4c(sc5nccnc54)c3=O)C[C@@H]1CO2 (racemic) [Example 76, 3-[4-((±)-cis-8-Methoxy-1,2,3,3a,4,9b-hexahydro-[1]-benzopyrano[3,4-c]pyrrol-2-yl)butyl]-pyrazino[2',3':4,5]thieno[3,2-d]pyrimidine-2,4(1H,3H)-dione hydrochloride] | 11.7 nM | 6.21 nM | 78.6 nM | 12.9 nM |  |  |  | 
3 | COc1cccc2c1[C@@H]1CN(CCCCn3c(=O)[nH]c4c(sc5ccc(-c6cccnc6)nc54)c3=O)C[C@H]1CO2 [Example 58, 3-[4-((3aS,9bR)-trans-9-Methoxy-1,2,3,3a,4,9b-hexahydro-[1]-benzopyrano[3,4-c]pyrrol-2-yl)butyl]-8-(3-pyridyl)-pyrido[2',3':4,5]thieno[3,2-d]pyrimidine-2,4(1H,3H)-dione trihydrochloride] |  |  |  |  | 0.273 nM | 0.188 nM | 2.08 nM | 0.039 nM
4 | COc1cnc2c(c1)sc1c(=O)n(CCCCN3C[C@H]4COc5cccc(OC)c5[C@@H]4C3)c(=O)[nH]c12 [Example 27, 3-[4-((3aS,9bR)-trans-9-Methoxy-1,2,3,3a,4,9b-hexahydro-[1]-benzopyrano[3,4-c]pyrrol-2-yl)butyl]-7-methoxy-pyrido[2',3':4,5]thieno[3,2-d]pyrimidine-2,4(1H,3H)-dione hydrochloride] |  |  |  |  | 0.121 nM | 0.044 nM | 0.974 nM | 0.094 nM
5 | COc1cccc2c1[C@@H]1CN(CCCCn3c(=O)[nH]c4c(sc5ncc(-c6cccnc6)nc54)c3=O)C[C@H]1CO2 [Example 60, 3-[4-((3aS,9bR)-trans-9-Methoxy-1,2,3,3a,4,9b-hexahydro-[1]-benzopyrano[3,4-c]pyrrol-2-yl)butyl]-8-(3-pyridyl)-pyrazino[2',3':4,5]thieno[3,2-d]pyrimidine-2,4(1H,3H)-dione dihydrochloride] |  |  |  |  | 0.187 nM | 0.078 nM | 14.2 nM | 1.82 nM
6 | COc1ccc2sc3c(=O)n(CCCCN4CC[C@H]5c6c(OC)cccc6OC[C@@H]5C4)c(=O)[nH]c3c2n1 [Example 98, 3-[4-((4aS,10bR)-trans-10-Methoxy-1,3,4,4a,5,10b-hexahydro-2H-[1]-benzopyrano[3,4-c]pyrido-3-yl)butyl]-8-methoxy-pyrido[2',3':4,5]thieno[3,2-d]pyrimidine-2,4(1H,3H)-dione hydrochloride] |  |  |  |  | 1.02 nM | 0.121 nM | 2.65 nM | 0.324 nM
7 | COc1cc2[nH]c(=O)n(CCCCN3C[C@@H]4COc5ccccc5[C@H]4C3)c(=O)c2cc1OC (racemic) [Example 80, 3-[4-((±)-trans-1,2,3,3a,4,9b-hexahydro-[1]-benzopyrano[3,4-c]pyrrol-2-yl)butyl]-6,7-dimethoxy-quinazoline-2,4(1H,3H)-dione hydrochloride] | 0.442 nM | 0.17 nM | 2.5 nM | 0.765 nM |  |  |  | 
8 | COc1ccc2c(c1)[C@@H]1CN(CCCn3c(=O)[nH]c4c(sc5ncccc54)c3=O)C[C@@H]1CO2 (racemic) [Example 77, 3-[3-((±)-cis-8-Methoxy-1,2,3,3a,4,9b-hexahydro-[1]-benzopyrano[3,4-c]pyrrol-2-yl)propyl]-pyrido[3',2':4,5]thieno[3,2-d]pyrimidine-2,4(1H,3H)-dione hydrochloride] | 99.7 nM | 27 nM |  | 106 nM |  |  |  | 
